Source: patent publication US9289496B2, “Lipid dipeptide and gel” (Nissan Chemical Industries, Ltd., priority 2008, dated 2016)
Entries after “also recorded” stand apart in the source; their conditions may differ. Residues, ends and D or L forms follow the SMILES beside them.

Legend:
[1] = Evaluation of gelation of lipid peptides with pure water; format: physicochemical
Protocol: Each of the lipid peptides synthesized in Examples 1, 6, 7, 8, and 10 was placed in a sample tube. Pure water (without metals and ions) was added so that a solution would have a lipid peptide concentration of 0.25 or 0.5% (w/v) (w means mass (g), and v means volume (mL)). The mixture was heated at 90° C. or more to dissolve the lipid peptide, and then allowed to cool.

[2] = Evaluation of gelation of lipid peptides with phosphate buffer; format: physicochemical; conditions: for Gel formation: acidic region (pH=2.6)
Protocol: Each of the lipid peptides synthesized in Examples 3 to 10 and Example 14 was placed in a sample tube. Each of three phosphate buffers (PBS) (pH=2.6, 7.4, or 10) was added so that a solution would have a lipid peptide concentration of 0.25 or 0.5% (w/v) (conditions A to F). Then, the mixture was heated at 90° C. or more to dissolve the lipid peptide, and then allowed to cool.

[3] = Gel sheet formation and stability of gel on water immersion; format: physicochemical; conditions: 72 hours
Protocol: Into a screw tube (Maruemu No. 3, manufactured by Maruemu Corp.), 3 mg of N-palmitoyl-Gly-His (TFA) prepared in Example 1 was placed, and 0.6 ml of Japanese Pharmacopoeia purified water (Kyoei Pharmaceutical Industries, Ltd.) was added into the screw tube so as to have a concentration of 0.5% (w/v). The whole was heated at 105° C. for 5 minutes, and then allowed to stand at room temperature to prepare a gel of 0.5% N-palmitoyl-Gly-His (TFA).
To the gel, 2 ml of Japanese Pharmacopoeia purified water (Kyoei Pharmaceutical Industries, Ltd.) was further added and sheet formation was observed from a wide view for 72 hours.
Into a screw tube (Maruemu No. 3, manufactured by Maruemu Corp.), 9.1 mg of N-palmitoyl-Gly-His.TFA salt prepared in Example 1 was placed, and 0.91 ml of Japanese Pharmacopoeia purified water (Kyoei Pharmaceutical Industries, Ltd.) and 0.91 ml of glycerin (Junsei Chemical Co., Ltd.) were added into the screw tube so as to have a concentration of 0.5% (w/v). The whole was heated at 105° C. for 5 minutes, and then allowed to stand at room temperature to prepare a gel of 0.5% N-palmitoyl-Gly-His.TFA salt in a glycerin solution.
Into the gel, 2 ml of Japanese Pharmacopoeia purified water (Kyoei Pharmaceutical Industries, Ltd.) was further added and sheet formation was observed from a wide view for 72 hours.
Into a screw tube (Maruemu No. 3, manufactured by Maruemu Corp.), 4.6 mg of N-palmitoyl-Gly-His.TFA salt prepared in Example 1 was placed, and 0.46 ml of glycerin was added into the screw tube so as to have a concentration of 1% (w/v). The whole was heated at 105° C. for 5 minutes, and then allowed to stand at room temperature to prepare a gel of 1% N-palmitoyl-Gly-His.TFA salt in glycerin.
(§1) Each of the 50.4 mg of N-palmitoyl-Gly-His.TFA salt prepared in Examples 1 to 3 was placed into a screw tube (Maruemu No. 7, manufactured by Maruemu Corp.). Into the screw tube, 1 ml of polyethylene glycol 400 (Wako Pure Chemical Industries, Ltd.), 1.5 ml of ethanol, and 8 ml of 70% glycerin (Junsei Chemical Co.) in water were added so as to have an N-palmitoyl-Gly-His TFA salt concentration of 0.5% (w/v). The mixture was heated with a dry bath incubator (manufactured by First Gene) (105° C., for 8 minutes), and then allowed to stand at room temperature to form a gel.
Into the gel, 20 ml of Japanese Pharmacopoeia purified water (Kyoei Pharmaceutical Industries, Ltd.) was further added and whether sheet formation occurred or not was observed from a wide view for 72 hours.
as §1, with “the 52.5” for “the 50.4”, “was added” for “was placed”, “tube, 0.5” for “tube, 1”, “Ltd.), 1” for “Ltd.), 1.5”, “an N-palmitoyl-Gly-His.TFA” for “an N-palmitoyl-Gly-His TFA”
(§2) Each of the 50.2 mg of palmitoyl-Gly-His.TFA salt prepared in Examples 1 to 3 was placed into a screw tube (Maruemu No. 7, manufactured by Maruemu Corp.) together with 104.7 mg of indomethacin and 220 mg of I-menthol. Into the screw tube, 0.5 ml of polyethylene glycol 400 (Wako Pure Chemical Industries, Ltd.), 1.5 ml of ethanol, 8 ml of 70% glycerin (Junsei Chemical Co., Ltd.) in water were added so as to have an N-palmitoyl-Gly-His.TFA salt concentration of 0.5% (w/v). […] The texture of the gel was smooth and cool.
After ascertainment of the gel formation, the gel was allowed to stand at room temperature for 45 days. Then, 20 ml of Japanese Pharmacopoeia purified water (Kyoei Pharmaceutical Industries, Ltd.) was added and sheet formation was observed from a wide view for 72 hours. […]

[4] = Gel formation in glycerin, polyethylene glycol 400 and ethanol medium; format: physicochemical; conditions: 8 ml 70% glycerin in water
Protocol: as §1
as §1, with “the 52.5” for “the 50.4”, “was added” for “was placed”, “tube, 0.5” for “tube, 1”, “Ltd.), 1” for “Ltd.), 1.5”, “an N-palmitoyl-Gly-His.TFA” for “an N-palmitoyl-Gly-His TFA”
as §2

[5] = Evaluation of gelation of N-palmitoyl-Gly-His.TFA salt with various solutions; format: physicochemical
Protocol: Each N-palmitoyl-Gly-His trifluoroacetate synthesized in Examples 1 to 3 was placed in a screw tube (Maruemu No. 1, manufactured by Maruemu Corp.). Each of various solutions shown in Table 3 was added so as to have an N-palmitoyl-Gly-His.TFA salt (also called Pal-GH (TFA)) concentration of 0.5 or 1% (w/v). The mixture was heated at 100° C. with a constant temperature heat block (manufactured by Nippon Genetics Co., Ltd.), and then allowed at room temperature.

[6] = cited from earlier work
[7] = Usable mediums: solubility and gel formation, conventional art vs palmitoyl-Gly-His; format: physicochemical

CCCCCCCCCCCCCCCC(=O)NCC(=O)N[C@@H](Cc1c[nH]cn1)C(=O)O.O=C(O)C(F)(F)F [Example 1, N-palmitoyl-Gly-His.TFA salt] (HELM PEPTIDE1{[CCCCCCCCCCCCCCCC(=O)[*:2]].G.H}$$$$V2.0)
Gelation ([1]; lipid peptide 0.25% (w/v)): ◯
Gelation ([1]; lipid peptide 0.50% (w/v)): ◯
Gel formation ([2]; concentration 0.25%): formed gels
Gel formation ([2]; concentration 0.5%): formed gels
Gelation ([2]; condition A: phosphate buffer pH = 2.6, 0.5% (w/v)): ◯
Gelation ([2]; condition B: phosphate buffer pH = 2.6, 0.25% (w/v)): ◯
Gelation ([2]; condition C: phosphate buffer pH-7.4, 0.5% (w/v)): ◯
Gelation ([2]; condition D: phosphate buffer pH-7.4, 0.25% (w/v)): ◯
Gelation ([2]; condition E: phosphate buffer pH = 10, 0.5% (w/v)): ◯
Gel behaviour on immersion in purified water, sheet formation ([3]; 0.5% (w/v) gel in 0.5 ml polyethylene glycol 400, 1 ml ethanol, 8 ml 70% glycerin, 20 ml water added): not dissolved during water immersion and the formation of a sheet-shaped gel was observed
Gel behaviour on immersion in purified water, sheet formation ([3]; 0.5% (w/v) gel in 1 ml polyethylene glycol 400, 1.5 ml ethanol, 8 ml 70% glycerin, 20 ml water added): not dissolved during water immersion and the formation of a sheet-shaped gel was observed
Gel behaviour on immersion in purified water, sheet formation ([3]; 0.5% (w/v) gel in glycerin solution (0.91 ml water + 0.91 ml glycerin), 2 ml water added): not dissolved during water immersion and the formation of a sheet-shaped gel was observed
Gel behaviour on immersion in purified water, sheet formation ([3]; 0.5% (w/v) gel in purified water, 2 ml water added): not dissolved during water immersion and the formation of a sheet-shaped gel was observed; also recorded: did not dissolve during water immersion and the formation of a sheet-shaped gel was observed
Gel behaviour on immersion in purified water, sheet formation ([3]; 0.5% (w/v) gel including indomethacin and l-menthol, after 45 days at room temperature, 20 ml water added): not dissolved during water immersion and the formation of a sheet-shaped gel was observed
Gel behaviour on immersion in purified water, sheet formation ([3]; 1% (w/v) gel in glycerin, 2 ml water added): not dissolved during water immersion and the formation of a sheet-shaped gel was observed
Gel formation ([4]; 0.5% (w/v) with 104.7 mg indomethacin and 220 mg l-menthol, 0.5 ml polyethylene glycol 400, 1.5 ml ethanol): pale yellow gel
Gel formation ([4]; 0.5% (w/v), 0.5 ml polyethylene glycol 400, 1 ml ethanol): form a gel
Gel formation ([4]; 0.5% (w/v), 1 ml polyethylene glycol 400, 1.5 ml ethanol): form a gel
Gel state ([5]; 50% 1,3-butanediol aqueous solution, 0.5% (w/v)): White gel
Gel state ([5]; 50% glycerin aqueous solution, 0.5% (w/v)): White gel
Gel state ([5]; 50% liquid paraffin aqueous solution, 0.5% (w/v)): White gel
Gel state ([5]; 50% polyethylene glycol 400 aqueous solution, 0.5% (w/v)): White gel
Gel state ([5]; 50% propylene glycol aqueous solution, 0.5% (w/v)): White gel
Gel state ([5]; 70% glycerin aqueous solution, 0.5% (w/v)): Transparent gel
Gel state ([5]; Glycerin, 1.0% (w/v)): Transparent gel
Gel state ([5]; Polyethylene glycol 400, 1.0% (w/v)): Transparent gel

CCCCCCCCCCCCCCCC(=O)NCC(=O)NCC(=O)NCC(=O)N[C@@H](Cc1c[nH]cn1)C(=O)O [palmitoyl-Gly-Gly-Gly-His] (HELM PEPTIDE1{[CCCCCCCCCCCCCCCC(=O)[*:2]].G.G.G.H}$$$$V2.0)
lowest gelation concentration ([6]; Non-patent Document 10): 0.03 wt %
Solubility in medium ([7]; 50 mM acetate buffer with pH 5, even when heated): insoluble
Solubility in medium ([7]; 50 mM citrate buffer with pH 5, even when heated): insoluble
Gel formation ([7]; ethanol/water mixed solvent having an ethanol concentration of 80% or more): does not form a gel

CCCCCCCCCCCCCCCC(=O)NCC(=O)NCC(=O)N[C@@H](Cc1c[nH]cn1)C(=O)O [palmitoyl-Gly-Gly-His] (HELM PEPTIDE1{[CCCCCCCCCCCCCCCC(=O)[*:2]].G.G.H}$$$$V2.0)
gelation properties ([6]; background art): has gelation properties
